Assay results: article PMC11876601 (Molecular Systems Biology, 2025)
Where two headings read alike, the source gives them in different places.

How the values were obtained:
Assay in all cases: Drug combination viability screen (ATPlite, 72 h);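 as to AUC: area under vehicle-normalized viability curve scaled 0 to 100 percent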;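 as to Curve bottom: fraction of vehicle control viability from four-parameter log-logistic fit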
Format in all cases: cell-based, human
Set-up in all cases: AUC: unit not given beside the values
[1] = test system: BxPC-3 cells; conditions: for EC50: Homo sapiens, BXPC-3;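 as to AUC: area under vehicle-normalized viability curve scaled 0 to 100 percent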;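 as to Curve bottom: fraction of vehicle control viability from four-parameter log-logistic fit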
Experimental: (§1) Cell viability was assessed by measuring ATP levels to indicate metabolic activity.
(§2) Afterward, small amounts were transferred to 384-well intermediate plates (Greiner Bio-One GmbH, Germany). […] For drug combination screening, 1000 to 5000 cells were seeded into 384-well plates (CulturPlate™, Perkin Elmer, MA, USA) using a Multidrop™ Combi Reagent Dispenser (Thermo Scientific, MA, USA) in 50 µl medium per well 24 h prior to drug treatment (seeding densities see Appendix Table S1). […] The final DMSO concentration in each well was 0.2%. […] Eight wells per plate without library drug served as negative controls, and sixteen wells per plate containing 5 µM Staurosporine served as positive controls. Control plates not containing any drug were used to correct for incubation effects, and data quality was assessed by calculation of Z-prime of positive and negative controls according to1 Z-prime=1−3SDpos+3SDneg/[…] where SD is the standard deviation. […] Dose–response curves from the experimental and hypothetical data were compared, and shifts in AUC were used to describe combination effects (AUC∆ = AUChypothetical − AUCexperimental). […] Only combinations with R^2 > 0.8 in both conditions were considered in the synergy analysis.

[2] = test system: PANC-1 cells;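 as to AUC: area under vehicle-normalized viability curve scaled 0 to 100 percent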;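 as to Curve bottom: fraction of vehicle control viability from four-parameter log-logistic fit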
Experimental: as §1, §2

[3] = test system: MiaPaCa-2 cells; conditions: for EC50: Homo sapiens;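 as to AUC: area under vehicle-normalized viability curve scaled 0 to 100 percent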;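 as to Curve bottom: fraction of vehicle control viability from four-parameter log-logistic fit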
Experimental: as §1, §2

[4] = test system: Colo-357 cells; conditions: for EC50: Homo sapiens, COLO357;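 as to AUC: area under vehicle-normalized viability curve scaled 0 to 100 percent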
Experimental: as §1, §2

[5] = test system: HuP-T4 cells; conditions: for EC50: Homo sapiens;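 as to AUC: area under vehicle-normalized viability curve scaled 0 to 100 percent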
Experimental: as §1, §2

[6] = test system: PaTu-8988-T cells; conditions: for EC50: Homo sapiens, PaTu 8988t;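 as to AUC: area under vehicle-normalized viability curve scaled 0 to 100 percent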
Experimental: as §1, §2

Nc1ccn([C@@H]2O[C@H](CO)[C@@H](O)C2(F)F)c(=O)n1 [GEM, Gemcitabine]
Reponse ([1]; BxPC-3, R1, 41.15 nM): 1061560 | Reponse ([1]; BxPC-3, R1, 123.46 nM): 1199800 | Reponse ([1]; BxPC-3, R1, 370.37 nM): 1177280 | Reponse ([1]; BxPC-3, R1, 1111.11 nM): 1044400 | Reponse ([1]; BxPC-3, R1, 3333.33 nM): 1111640 | Reponse ([1]; BxPC-3, R1, 10000 nM): 1115240 | Reponse ([1]; BxPC-3, R2, 13.72 nM): 1392120 | Reponse ([1]; BxPC-3, R2, 41.15 nM): 1083440 | Reponse ([1]; BxPC-3, R2, 123.46 nM): 1301640 | Reponse ([1]; BxPC-3, R2, 370.37 nM): 1316120 | Reponse ([1]; BxPC-3, R2, 1111.11 nM): 1172200 | Reponse ([1]; BxPC-3, R2, 3333.33 nM): 1101720 | Reponse ([1]; BxPC-3, R2, 10000 nM): 982880 | Curve bottom ([1]; BxPC-3, GEM curve fit): 0.26 | Curve effect size ([1]; BxPC-3, GEM curve fit): 0.75 | Curve slope ([1]; BxPC-3, GEM curve fit): 1.82 | Curve top ([1]; BxPC-3, GEM curve fit): 1.03 | AUC ([1]; BxPC-3, GEM curve fit, in %): 45.89 | EC50 ([1]; read-out: EC50): 3.59 nM | EC50 ([1]; read-out: pEC50 (converted)): 3.55 nM | EC50 ([2]; Homo sapiens, PANC-1, read-out: EC50,GEM): ≥ 10 nM | Reponse ([2]; PANC-1, R1, 13.72 nM): 5718200 | Reponse ([2]; PANC-1, R1, 41.15 nM): 4879000 | Reponse ([2]; PANC-1, R1, 370.37 nM): 4043760 | Reponse ([2]; PANC-1, R1, 1111.11 nM): 3920600 | Reponse ([2]; PANC-1, R1, 3333.33 nM): 3788160 | Reponse ([2]; PANC-1, R1, 10000 nM): 3980640 | AUC ([2]; PANC-1, GEM curve fit): 85.88 | Curve bottom ([2]; PANC-1, GEM curve fit): 0.69 | Curve effect size ([2]; PANC-1, GEM curve fit): 0.31 | Curve slope ([2]; PANC-1, GEM curve fit): 1.11 | Curve top ([2]; PANC-1, GEM curve fit): 1.01 | Reponse ([2]; Panc-1, R2, 41.15 nM): 5844240 | Reponse ([2]; Panc-1, R2, 123.46 nM): 5369400 | Reponse ([2]; Panc-1, R2, 370.37 nM): 5134080 | Reponse ([2]; Panc-1, R2, 1111.11 nM): 4763640 | Reponse ([2]; Panc-1, R2, 10000 nM): 4614040 | Reponse ([2]; Panc-1, replicate R2, dose 13.72 nM, raw signal): 6385680 | EC50 ([3]; MIA PaCa-2, read-out: EC50,GEM): ≥ 10 nM | EC50 ([3]; MIA PaCa-2, read-out: EC50): 13.6 nM | EC50 ([3]; MIA PaCa-2, read-out: pEC50 (converted)): 13.5 nM | Reponse ([3]; MiaPaCa-2, R1, 13.72 nM): 4319964 | Reponse ([3]; MiaPaCa-2, R1, 41.15 nM): 2249377 | Reponse ([3]; MiaPaCa-2, R1, 123.46 nM): 1464819 | Reponse ([3]; MiaPaCa-2, R1, 370.37 nM): 1237785 | Reponse ([3]; MiaPaCa-2, R1, 1111.11 nM): 1237333 | Reponse ([3]; MiaPaCa-2, R1, 3333.33 nM): 1424454 | Reponse ([3]; MiaPaCa-2, R1, 10000 nM): 1232056 | Reponse ([3]; MiaPaCa-2, R2, 13.72 nM): 3184320 | Reponse ([3]; MiaPaCa-2, R2, 41.15 nM): 1827720 | Reponse ([3]; MiaPaCa-2, R2, 123.46 nM): 1167560 | Reponse ([3]; MiaPaCa-2, R2, 370.37 nM): 1308800 | Reponse ([3]; MiaPaCa-2, R2, 1111.11 nM): 1074400 | Reponse ([3]; MiaPaCa-2, R2, 3333.33 nM): 1132280 | Reponse ([3]; MiaPaCa-2, R2, 10000 nM): 1191360 | Curve bottom ([3]; MiaPaCa-2, GEM curve fit): 0.18 | Curve effect size ([3]; MiaPaCa-2, GEM curve fit): 0.81 | Curve slope ([3]; MiaPaCa-2, GEM curve fit): 1.52 | Curve top ([3]; MiaPaCa-2, GEM curve fit): 0.96 | AUC ([3]; MiaPaCa-2, GEM curve fit, in %): 51.47 | ATP luminescence signal ([4]; Colo-357, R1, 13.72 nM): 68560 | ATP luminescence signal ([4]; Colo-357, R1, 41.15 nM): 61560 | ATP luminescence signal ([4]; Colo-357, R1, 123.46 nM): 70640 | ATP luminescence signal ([4]; Colo-357, R1, 370.37 nM): 48200 | ATP luminescence signal ([4]; Colo-357, R1, 1111.11 nM): 53560 | ATP luminescence signal ([4]; Colo-357, R1, 3333.33 nM): 50680 | ATP luminescence signal ([4]; Colo-357, R1, 10000 nM): 66360 | ATP luminescence signal ([4]; Colo-357, R2, 13.72 nM): 110000 | ATP luminescence signal ([4]; Colo-357, R2, 41.15 nM): 110560 | ATP luminescence signal ([4]; Colo-357, R2, 123.46 nM): 89840 | ATP luminescence signal ([4]; Colo-357, R2, 370.37 nM): 97560 | ATP luminescence signal ([4]; Colo-357, R2, 1111.11 nM): 70040 | ATP luminescence signal ([4]; Colo-357, R2, 3333.33 nM): 80720 | ATP luminescence signal ([4]; Colo-357, R2, 10000 nM): 83360 | Curve bottom ([4]; Colo-357, GEM curve fit): 0.03 | Curve effect size ([4]; Colo-357, GEM curve fit): 0.97 | Curve slope ([4]; Colo-357, GEM curve fit): 3.24 | Curve top ([4]; Colo-357, GEM curve fit): 0.97 | AUC ([4]; Colo-357, GEM curve fit, in %): 20.82 | EC50 ([4]; read-out: EC50): 1.32 nM | EC50 ([4]; read-out: pEC50 (converted)): 1.32 nM | EC50 ([5]; HuP-T4, read-out: EC50): 3.08 nM | EC50 ([5]; HuP-T4, read-out: pEC50 (converted)): 3.09 nM | Reponse ([5]; HuP-T4, R1, 13.72 nM): 312040 | Reponse ([5]; HuP-T4, R1, 370.37 nM): 231280 | Reponse ([5]; HuP-T4, R1, 1111.11 nM): 191240 | Reponse ([5]; HuP-T4, R1, 3333.33 nM): 187320 | Reponse ([5]; HuP-T4, R1, 10000 nM): 235360 | Reponse ([5]; HuP-T4, R2, 13.72 nM): 353160 | Reponse ([5]; HuP-T4, R2, 41.15 nM): 432720 | Reponse ([5]; HuP-T4, R2, 123.46 nM): 313280 | Reponse ([5]; HuP-T4, R2, 370.37 nM): 314320 | Curve bottom ([5]; HuP-T4, GEM curve fit): 0.12 | Curve effect size ([5]; HuP-T4, GEM curve fit): 0.88 | Curve slope ([5]; HuP-T4, GEM curve fit): 4.56 | Curve top ([5]; HuP-T4, GEM curve fit): 0.99 | AUC ([5]; HuP-T4, GEM curve fit, in %): 35.37 | EC50 ([6]; read-out: EC50,GEM): ≥ 10 nM | EC50 ([6]; read-out: EC50): 9.74 nM | EC50 ([6]; read-out: pEC50 (converted)): 9.77 nM | Reponse ([6]; PaTu-8988-T, R1, 13.72 nM): 1159840 | Reponse ([6]; PaTu-8988-T, R1, 41.15 nM): 749200 | Reponse ([6]; PaTu-8988-T, R1, 123.46 nM): 706000 | Reponse ([6]; PaTu-8988-T, R1, 370.37 nM): 666320 | Reponse ([6]; PaTu-8988-T, R1, 1111.11 nM): 670960 | Reponse ([6]; PaTu-8988-T, R1, 3333.33 nM): 680760 | Reponse ([6]; PaTu-8988-T, R1, 10000 nM): 674680 | Reponse ([6]; PaTu-8988-T, replicate R2, dose 13.72 nM, raw signal): 1366360 | Reponse ([6]; PaTu-8988-T, replicate R2, dose 41.15 nM, raw signal): 917320 | Reponse ([6]; PaTu-8988-T, replicate R2, dose 123.46 nM, raw signal): 868680 | Reponse ([6]; PaTu-8988-T, replicate R2, dose 370.37 nM, raw signal): 808920 | Reponse ([6]; PaTu-8988-T, replicate R2, dose 3333.33 nM, raw signal): 899440 | Reponse ([6]; PaTu-8988-T, replicate R2, dose 10000 nM, raw signal): 809960 | Curve bottom ([6]; PaTu-8988-T, GEM curve fit): 0.31 | Curve effect size ([6]; PaTu-8988-T, GEM curve fit): 0.68 | Curve slope ([6]; PaTu-8988-T, GEM curve fit): 2.40 | Curve top ([6]; PaTu-8988-T, GEM curve fit): 0.96 | AUC ([6]; PaTu-8988-T, GEM curve fit, in %): 56.98
